One experiment has as its system human erythroid cells. Nature of the experiment: Erythroid maturation by CD71/CD235a flow cytometry and cytospin after JQ1. Type of experiment: cell-based. The following applies: JQ1 vs DMSO, cell surface markers CD71 and CD235a, cytospin. The protocol: (§1) Cells and Cell Culture. Human […] K562 cells were obtained from ATCC and cultured in IMDM medium containing 10% FBS and 1% penicillin/streptomycin. pEF1α-FB-dCas9 and pEF1α-BirA-V5 vectors were co-transfected into K562 cells by nucleofection using the ECM 830 Square Wave Electroporation System (Harvard Apparatus, Holliston, Mass.). Cells were plated in 96-well plates and treated with 1 μg/ml of puromycin (Sigma) and 600 μg/ml of G418 (Sigma) 48-72 hour post-transfection. Single-cell-derived clones were isolated and examined by Western blot analysis to screen for FB-dCas9 and BirA-expressing stable clones. Human primary adult erythroid progenitor cells were generated ex vivo from CD34+ HSPCs as previously described (Huang et al., 2016). Primary HSPCs from both sexes were used in this study. […] Mouse male embryonic stem cells (ESCs) were cultured on primary embryonic fibroblasts and differentiated to embryoid bodies (EBs) by LIF withdrawal for 8 days. All cultures were incubated at 37° C. in 5% CO2. […]
Flow Cytometry. Human erythroid cell differentiation was analyzed by flow cytometry using FACSCanto. […] The cells were analyzed for expression of cell surface receptors with antibodies specific for CD71 and CD235a conjugated to phycoerythrin (PE) and fluorescein isothiocyanate (FITC), respectively. Data were analyzed using FlowJo software (Ashland, Oreg.). […]
Background: Flow cytometry measures light scatter and fluorescence of single cells or particles in a stream.

Experiment [1] has as its system human primary erythroid cells. Nature of the experiment: qRT-PCR of β-globin mRNAs after JQ1 treatment. The experiment is classed as cell-based. The following applies: JQ1 vs DMSO. The protocol: as §1, with “CO2. All cell lines were tested for mycoplasma contamination.” for “CO2.”
RNA-seq and qRT-PCR Analysis. […] Sequencing reads from all RNA-seq experiments were aligned to human (hg19) reference genome by TopHat v2.0.13 (Trapnell et al., 2009) with the parameters: --solexaquals --no-novel-juncs. Quantitative RT-PCR (qRT-PCR) was performed using the iQ SYBR Green Supermix (Bio-Rad).
In general terms: Real-time PCR tracks product formation cycle by cycle.

Entries after “also recorded” stand apart in the source; their conditions may differ.

As to `Cc1sc2c(c1C)C(c1ccc(Cl)cc1)=N[C@@H](CC(=O)OC(C)(C)C)c1nnc(C)n1-2` [JQ1], in the experiment with human erythroid cells, the erythroid differentiation entry is “without apparent effects”. Moreover, in experiment [1], the “β-globin mRNAs” value is listed as “significant downregulation; also recorded: significantly decreased”.

Values taken from patent US20190062736A1, “IN SITU AND IN VIVO ANALYSIS OF CHROMATIN INTERACTIONS BY BIOTINYLATED DCAS9 PROTEIN” (BOARD OF REGENTS, THE UNIVERSITY OF TEXAS SYSTEM, priority 2017, published 2019).
